Reference: patent US4160839A, “Carbamyltriazole insecticides” (priority 1976, dated 1979)

Legend:
[1] = system: southern armyworm (SA) larvae; test: Spray test, southern armyworm (SA) larvae on bean leaves; format: in vivo; conditions: approx. 48 h after spraying
Method: (§1) Three 5 oz paper cups containing Henderson dwarf lima bean plants and one 5 oz paper cup containing Orange Gem nasturtiums, all growing in vermiculite, are placed on a turntable and sprayed to thorough wetness with 25 ml of a solution of the candidate chemical at the appropriate concentration. Nasturtiums were already infested with 50-100 bean aphids (BA). A bean plant in one paper cup was already infested with 50-100 two-spotted mites (TSM). Leaves from the two remaining bean plants are removed following spraying and placed in disposable petri dishes with 5 southern armyworm (SA) larvae in one petri dish, and 5 Mexican bean beetle (MBB) larvae in the other petri dish. The rating is done approximately 48 hours after spraying as follows:
(§2) So as to obtain more meaningful results, all tests are performed at the same time of day, whenever possible, usually in the forenoon. Temperature,illumination and humidity are the same in all tests. Atmospheric pressure is not controlled.
(§3) Results obtained with the novel insecticides of this invention at various concentrations of active chemical are tabulated below. The ratings given are for averages of three or more replicates. The oral lethal dose for 50 percent kill of laboratory rats is also recorded in the table. In conducting the toxicity tests on rats, 0.01 g of active chemical per ml in corn oil is employed as an additive to the diet of the animals.

bean aphids (BA) = test: Spray test, bean aphids (BA) on nasturtiums; format: in vivo; conditions: approx. 48 h after spraying
Method: as §1, §2, §3

two-spotted mites (TSM) = test: Spray test, two-spotted mites (TSM) on bean plants; format: in vivo; conditions: approx. 48 h after spraying
Method: as §1, §2, §3

[2] = system: Southern Corn Rootworm (SCR); test: Southern Corn Rootworm (SCR) soil treatment test, root feeding damage on corn; format: in vivo; set-up: scale not given here; conditions: nine days after treatment
Method: Three 5 oz paper cups planted each with one kernel of DeKalb XL-361 corn are treated two days after planting with 10 ml of a 125 ppm solution of the candidate compound. Compounds with high efficacy are treated at lower concentrations. The experiment is a 4×5 factorial in a randomized complete block design with three replications. The tests are evaluated nine days after treatment. The roots are inspected under a dissecting microscope and rated as follows:
as §2, §3

[3] = system: Mexican bean beetle (MBB) larvae; test: Spray test, Mexican bean beetle (MBB) larvae on bean leaves; format: in vivo; conditions: approx. 48 h after spraying
Method: as §1, §2, §3

[4] = Oral toxicity test on laboratory rats; conditions: rat, in vivo, in corn oil as additive to the diet, read-out: LD50 (oral lethal dose for 50 percent kill of laboratory rats)
Method: as §3

| SMILES | SA rating (larvae dead) ([1]; 500 ppm) | BA rating (dead) (bean aphids (BA); 2 ppm) | BA rating (dead) (bean aphids (BA); 4 ppm) | BA rating (dead) (bean aphids (BA); 8 ppm) | BA rating (dead) (bean aphids (BA); 15 ppm) | BA rating (dead) (bean aphids (BA); 31 ppm) | BA rating (dead) (bean aphids (BA); 62 ppm) | BA rating (dead) (bean aphids (BA); 125 ppm) | BA rating (dead) (bean aphids (BA); 250 ppm) | BA rating (dead) (bean aphids (BA); 500 ppm) | TSM rating (dead adults) (two-spotted mites (TSM); 500 ppm) | MBB rating (larvae dead) ([3]; 500 ppm) | SA rating (larvae dead) ([1]; 15 ppm) | SA rating (larvae dead) ([1]; 31 ppm) | SA rating (larvae dead) ([1]; 62 ppm) | SA rating (larvae dead) ([1]; 125 ppm) | SA rating (larvae dead) ([1]; 250 ppm) | SCR Rating (root feeding damage) ([2]; 50 ppm) | MBB rating (larvae dead) ([3]; 15 ppm) | MBB rating (larvae dead) ([3]; 31 ppm) | other results |
| --- | --- | --- | --- | --- | --- | --- | --- | --- | --- | --- | --- | --- | --- | --- | --- | --- | --- | --- | --- | --- | --- |
| C=C(C)CSc1nc(C(C)(C)C)nn1C(=O)N(C)C [R=2-methylallyl, R'=tert.butyl] | 0 (no larvae dead) | 1 (1-25% dead) | 4 (76-99% dead) | 4 (76-99% dead) | 5 (100% dead) | 5 (100% dead) | 5 (100% dead) | 5 (100% dead) | 5 (100% dead) | 5 (100% dead) | 0 (no dead adults) | 2 (26-50% larvae dead) |  |  |  |  |  |  |  |  | SCR Rating (root feeding damage) ([2]; 100 ppm): 1.3 |
| C#CCSc1nc(CCC)nn1C(=O)N(C)C [R=2-propynyl, R'=propyl] | 5 (100% larvae dead) | 0 (none dead) | 0 (none dead) | 1 (1-25% dead) | 5 (100% dead) | 5 (100% dead) | 5 (100% dead) | 5 (100% dead) | 5 (100% dead) | 5 (100% dead) | 0 (no dead adults) | 5 (100% larvae dead) | 0 (no larvae dead) | 0 (no larvae dead) | 0 (no larvae dead) | 0 (no larvae dead) | 0 (no larvae dead) | 2.7 | 0 (no larvae dead) | 1 (1 -25% larvae dead) | SCR Rating (root feeding damage) ([2]; 25 ppm): 1.3; SCR Rating (root feeding damage) ([2]; 100 ppm): 3.7; MBB rating (larvae dead) ([3]; 62 ppm): 3 (51-75% larvae dead); MBB rating (larvae dead) ([3]; 125 ppm): 5 (100% larvae dead); MBB rating (larvae dead) ([3]; 250 ppm): 5 (100% larvae dead) |
| C#CCSc1nc(C(C)C)nn1C(=O)N(C)C [R=2-propynyl, R'=isopropyl] | 5 (100% larvae dead) | 0 (none dead) | 3 (51-75% dead) |  | 5 (100% dead) | 5 (100% dead) |  | 5 (100% dead) | 5 (100% dead) | 5 (100% dead) | 0 (no dead adults) | 5 (100% larvae dead) | 0 (no larvae dead) | 0 (no larvae dead) | 0 (no larvae dead) | 3 (51-75% larvae dead) | 5 (100% larvae dead) | 2.7 | 0 (no larvae dead) | 4 (76-99% larvae dead) | LD50 [4]: ~50 mg/kg; SCR Rating (root feeding damage) ([2]; 12 ppm): 0.3; SCR Rating (root feeding damage) ([2]; 25 ppm): 1.3; MBB rating (larvae dead) ([3]; 62 ppm): 5 (100% larvae dead); MBB rating (larvae dead) ([3]; 125 ppm): 5 (100% larvae dead); MBB rating (larvae dead) ([3]; 250 ppm): 5 (100% larvae dead) |
| C=CCSc1nc(C2CC2)nn1C(=O)N(C)C [R=2-propenyl (allyl), R'=cyclopropyl] | 5 (100% larvae dead) | 4 (76-99% dead) | 5 (100% dead) | 5 (100% dead) | 5 (100% dead) | 5 (100% dead) | 5 (100% dead) | 5 (100% dead) | 5 (100% dead) | 5 (100% dead) | 5 (100% dead adults) | 5 (100% larvae dead) | 0 (no larvae dead) | 0 (no larvae dead) | 0 (no larvae dead) | 0 (no larvae dead) | 0 (no larvae dead) | 3.5 | 0 (no larvae dead) | 0 (no larvae dead) | LD50 [4]: 5 to 10 mg/kg; TSM rating (dead adults) (two-spotted mites (TSM); 15 ppm): 0 (no dead adults); TSM rating (dead adults) (two-spotted mites (TSM); 31 ppm): 0 (no dead adults); TSM rating (dead adults) (two-spotted mites (TSM); 62 ppm): 3 (51-75% dead adults); TSM rating (dead adults) (two-spotted mites (TSM); 125 ppm): 5 (100% dead adults); TSM rating (dead adults) (two-spotted mites (TSM); 250 ppm): 5 (100% dead adults); SCR Rating (root feeding damage) ([2]; 3 ppm): 3.0; SCR Rating (root feeding damage) ([2]; 6 ppm): 2.5; SCR Rating (root feeding damage) ([2]; 12 ppm): 2.5; SCR Rating (root feeding damage) ([2]; 25 ppm): 3.0; MBB rating (larvae dead) ([3]; 62 ppm): 0 (no larvae dead); MBB rating (larvae dead) ([3]; 125 ppm): 2 (26-50% larvae dead); MBB rating (larvae dead) ([3]; 250 ppm): 5 (100% larvae dead) |
| C=C(Cl)CSc1nc(C(C)(C)C)nn1C(=O)N(C)C [R=2-chloroallyl, R'=tert.butyl] | 0 (no larvae dead) | 4 (76-99% dead) | 4 (76-99% dead) | 4 (76-99% dead) | 5 (100% dead) | 5 (100% dead) | 5 (100% dead) | 5 (100% dead) | 5 (100% dead) | 5 (100% dead) | 0 (no dead adults) | 2 (26-50% larvae dead) |  |  |  |  |  |  |  |  |  |
| CN(C)C(=O)n1nc(C(C)(C)C)nc1SCC(Cl)=C(Cl)Cl [R=2,3,3-trichloro-allyl, R'=tert.butyl] | 0 (no larvae dead) | 3 (51-75% dead) | 3 (51-75% dead) | 4 (76-99% dead) | 5 (100% dead) | 5 (100% dead) | 5 (100% dead) | 5 (100% dead) | 5 (100% dead) | 4 (76-99% dead) | 0 (no dead adults) | 0 (no larvae dead) |  |  |  |  |  |  |  |  |  |
| C=C(Br)CSc1nc(C2CC2)nn1C(=O)N(C)C | 0 (no larvae dead) |  | 0 (none dead) | 2 (26-50% dead) | 4 (76-99% dead) | 5 (100% dead) | 5 (100% dead) | 5 (100% dead) | 5 (100% dead) | 5 (100% dead) | 2 (26-50% dead adults) | 2 (26-50% larvae dead) |  |  |  |  |  | 0.3 |  |  | SCR Rating (root feeding damage) ([2]; 100 ppm): 4.3 |
| C=C(Br)CSc1nc(C(C)(C)C)nn1C(=O)N(C)C | 0 (no larvae dead) |  | 4 (76-99% dead) | 4 (76-99% dead) | 5 (100% dead) | 5 (100% dead) | 5 (100% dead) | 5 (100% dead) | 5 (100% dead) | 5 (100% dead) | 4 (76-99% dead adults) | 2 (26-50% larvae dead) |  |  |  |  |  |  |  |  | TSM rating (dead adults) (two-spotted mites (TSM); 15 ppm): 0 (no dead adults); TSM rating (dead adults) (two-spotted mites (TSM); 31 ppm): 0 (no dead adults); TSM rating (dead adults) (two-spotted mites (TSM); 62 ppm): 0 (no dead adults); TSM rating (dead adults) (two-spotted mites (TSM); 125 ppm): 0 (no dead adults); TSM rating (dead adults) (two-spotted mites (TSM); 250 ppm): 0 (no dead adults) |
| C=CC(C)Sc1nc(C(C)(C)C)nn1C(=O)N(C)C (centres unmarked) [R=1-methylallyl, R'=tert.butyl] | 4 (76-99% larvae dead) |  |  |  | 5 (100% dead) | 5 (100% dead) | 5 (100% dead) | 5 (100% dead) | 5 (100% dead) | 5 (100% dead) | 0 (no dead adults) | 5 (100% larvae dead) | 0 (no larvae dead) | 0 (no larvae dead) | 0 (no larvae dead) | 0 (no larvae dead) | 0 (no larvae dead) |  | 0 (no larvae dead) | 0 (no larvae dead) | MBB rating (larvae dead) ([3]; 62 ppm): 0 (no larvae dead); MBB rating (larvae dead) ([3]; 125 ppm): 1 (1 -25% larvae dead); MBB rating (larvae dead) ([3]; 250 ppm): 1 (1 -25% larvae dead) |
